Eight compounds from patent US20050020501A1, “Methods of modulating the activity of mura” (SmithKline Beecham Corporation and SmithKline Beechm p.l.c., priority 2000, published 2005) can be followed below.

Experiment [1] addresses T1, EPSP Synthase (S. pneumoniae) (Streptococcus pneumoniae serotype 4, UniProt Q9S400).
T1 construct: made in house
Nature of the experiment: EPSPS kinetic assay, fluorescence coupled detection of inorganic phosphate release. Particulars: for Inhibition type vs. S3P / Inhibition type vs. PEP: EPSP synthase; for Inhibition type vs. S3P: varied substrate S3P; for Inhibition of EPSPS (in words): rosolic acid tested up to 2 mM; for Inhibition type vs. PEP: varied substrate PEP. The experiment is classed as biochemical. The text has this: (§1) All chemicals including ATA and its salt forms are from Aldrich. SKF-26488-W3 was isolated as a high-throughput screen hit against EPSPS. Escherichia coli MurA (Marquardt, et al., J. Bacteriol., Vol. 174: 5748-5752 (1992)) and Streptococcus pneumoniae EPSPS (Du, et al., Eur. J. Biochem., Vol. 267: 222-227 (2000)) were expressed and purified as described previously.
(§2) The assays for both EPSPS and MurA are based on the detection of inorganic phosphate release. A fluorescence coupled assay was used for EPSPS and was performed in 100 mM HEPES, pH 7.0, 1 mM NH4Cl, 100 mM KCl. (Du, et al., Eur. J. Biochem., Vol. 267: 222-227 (2000)). MurA was assayed in 50 mM HEPES, pH 7.5, 1 mM DTI using the Malachite Green reagent (Lanzetta, et al., Anal. Biochem., Vol. 100: 95-97 (1979)). The Ki values were determined with fixed concentration of one substrate and varying concentrations of the other substrate and inhibitor. Data were analyzed using GraFit v4.09 (Erithacus Software Ltd.).

The target in a further experiment is T2, MurA (E. coli) (Escherichia coli, UniProt P0A749).
T2 construct: made in house
T2 sequence (P0A749 whole entry): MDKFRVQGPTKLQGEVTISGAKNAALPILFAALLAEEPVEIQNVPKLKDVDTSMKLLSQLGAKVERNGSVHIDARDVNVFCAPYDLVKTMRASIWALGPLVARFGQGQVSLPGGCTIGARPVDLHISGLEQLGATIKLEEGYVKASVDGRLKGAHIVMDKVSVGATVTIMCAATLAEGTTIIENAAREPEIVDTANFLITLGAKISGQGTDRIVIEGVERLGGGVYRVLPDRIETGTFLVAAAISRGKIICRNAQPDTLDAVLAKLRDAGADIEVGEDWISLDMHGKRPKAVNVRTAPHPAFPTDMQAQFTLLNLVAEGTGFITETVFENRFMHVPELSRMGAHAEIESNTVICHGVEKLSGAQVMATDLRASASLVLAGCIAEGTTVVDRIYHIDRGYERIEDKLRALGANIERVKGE
As to the kind of experiment: MurA kinetic assay, Malachite Green detection of inorganic phosphate release. It is filed as biochemical. Particulars: for Ki / Inhibition type vs. PEP / Inhibition type vs. UDPAG: MurA.
Description: as §1, §2

The subject of the next experiment is S. pneumoniae 100993. Nature of the experiment: Antibacterial activity, minimum inhibitory concentration. Particulars: for Effect of adding aromatic amino acids and PABA on antibacterial activity in minimal media: minimal media with versus without aromatic amino acids and PABA; for Antibacterial activity compared across media: TH media and minimal media with and without supplements. The experiment is classed as cell-based, Streptococcus pneumoniae. The procedure: The antibacterial activity of ATA against S.pneumoniae100993 was measured in Todd Hewitt media, minimal media, and minimal media+aromatic amino acids (100 mg/L) and p-aminobenzoic acid (PABA) (0.2 mg/L). Glyphosate, chloramphenical and ciprofloxacin were controls.

[2] abbreviates: Streptococcus pneumoniae, 100993, read-out: Minimum Inhibitory Concentration, Minimal media.
Where [3] appears, read: Streptococcus pneumoniae, 100993, read-out: Minimum Inhibitory Concentration, Minimal media w/aa's + PABA.
[4] abbreviates: Streptococcus pneumoniae, 100993, read-out: Minimum Inhibitory Concentration, TH.
Where [5] appears, read: Streptococcus pneumoniae, 100993, Chemically Defined Medium for Group A Streptococci without aromatic amino acids and PABA, read-out: Minimum Inhibitory Concentration, Minimal media.
Setting [6] is: Streptococcus pneumoniae, 100993, JRH Strep media with aromatic amino acids and PABA, read-out: Minimum Inhibitory Concentration, Minimal media w/aa's + PABA.
Setting [7] is: Streptococcus pneumoniae, 100993, Todd Hewitt broth, read-out: Minimum Inhibitory Concentration, TH.

Converted amounts (≈) assume the structure as drawn. “Also recorded” adds a separate entry of the source. Structures can show the parent of a compound that is named as a salt. Where two headings read alike, the source gives them in different places.

T1 sequence (Q9S400 whole entry): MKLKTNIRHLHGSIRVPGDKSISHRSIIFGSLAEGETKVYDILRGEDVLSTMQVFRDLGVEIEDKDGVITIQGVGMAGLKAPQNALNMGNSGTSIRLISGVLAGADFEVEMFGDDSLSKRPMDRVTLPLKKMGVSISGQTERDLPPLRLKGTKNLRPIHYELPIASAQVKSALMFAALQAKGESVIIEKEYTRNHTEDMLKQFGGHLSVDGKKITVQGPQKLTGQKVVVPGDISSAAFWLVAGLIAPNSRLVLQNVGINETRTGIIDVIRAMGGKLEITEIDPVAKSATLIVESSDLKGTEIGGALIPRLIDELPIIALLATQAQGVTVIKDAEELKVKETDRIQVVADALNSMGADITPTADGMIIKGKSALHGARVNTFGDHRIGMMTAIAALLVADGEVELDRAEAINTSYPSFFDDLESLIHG

For the compound `O=C(O)C1=CC(=C(c2ccc(O)c(C(=O)O)c2)c2ccc(O)c(C(=O)O)c2)C=CC1=O` [ATA sodium salt], in experiment [1], the “Inhibition type vs. S3P” value is “competitive inhibitors vs. S3P” and the “Inhibition of EPSPS (in words)” value is “specific inhibitors of EPSPS”.

Consider `O=C(O)C1=CC(=C(c2ccc(O)c(C(=O)O)c2)c2ccc(O)c(C(=O)O)c2)C=CC1=O` [Aurin Tricarboxylic Acid], for which the “Inhibition type vs. PEP” value is recorded as “Noncompetitive” in experiment [1] and “Non-specific inhibition” on MurA (E. coli) (varied substrate PEP). Besides, the “Inhibition type vs. S3P” value in experiment [1] is given as “Competitive”; in experiment [1] (listed as aurin tricarboxylic acid), “competitive inhibitors vs. S3P”. The Ki (as a rule, the equilibrium dissociation constant of an inhibitor or competing ligand from its target) in experiment [1] (Ki vs. S3P, EPSPS, competitive vs. S3P, range given for ATA and its sodium and ammonium salts together) was 2.8 to 4.5 µM; on MurA (E. coli) (Ki vs. UDPAG, varied substrate UDPAG) it was 0.23 µM. Moreover, the “Potency against MurA relative to RA” value on MurA (E. coli) (ATA versus RA, MurA from Escherichia coli) was roughly 200 fold. The “Inhibition type vs. UDPAG” value on MurA (E. coli) (varied substrate UDPAG) is reported as “Competitive”; at MurA (E. coli) (varied substrate UDPAG, listed as ATA), “competitive vs UDPAG”. The “Inhibition pattern of MurA versus both substrates (in words)” value at MurA (E. coli) (versus UDPAG and PEP) is given as “specific inhibition patterns versus both substrates”. Also, the MIC is 2 µg/mL (≈ 4.74 µM) in the experiment with S. pneumoniae 100993 (setting [2]), 4 µg/mL with S. pneumoniae 100993 (setting [3]) and greater than 128 µg/mL in the experiment with S. pneumoniae 100993 (setting [4]). Besides, the “Activity in minimal media relative to TH media” value with S. pneumoniae 100993 (minimal media versus TH media) is on record as “more than 64 fold”. The “Effect of adding aromatic amino acids and PABA on antibacterial activity in minimal media” value with S. pneumoniae 100993 was “not reversed”.

For the compound `O=C1C=CC(=C(c2ccc(O)cc2)c2ccc(O)cc2)C=C1` [Rosolic Acid], the “Inhibition type vs. PEP” value in experiment [1] is given as “No inhibition (up to 2 mM)”; at MurA (E. coli) (varied substrate PEP) it was “Mixed type inhibition”. Also, the “Inhibition type vs. S3P” value in experiment [1] is reported as “No inhibition (up to 2 mM)”. Besides, the “Inhibition of EPSPS (in words)” value in experiment [1] was “does not inhibit EPSPS up to 2 mM”. The Ki at MurA (E. coli) (varied substrate PEP, mixed type inhibition, second constant, read-out: Ki′ vs. PEP) came out at 273 µM; on MurA (E. coli) (varied substrate PEP, mixed type inhibition, read-out: Ki vs. PEP), 10.9 µM; on MurA (E. coli) (varied substrate UDPAG, read-out: Ki vs. UDPAG), 44.7 µM. Also, the “Inhibition type vs. UDPAG” value is “Competitive” on MurA (E. coli) (varied substrate UDPAG) and “competitive vs UDPAG; also recorded: competitive inhibitor versus UDPAG, although a poor one” on MurA (E. coli) (varied substrate UDPAG, listed as RA).

`O=C(O)c1cn(C2CC2)c2cc(N3CCNCC3)c(F)cc2c1=O` [Ciprofloxacin]: the MIC with S. pneumoniae 100993 (setting [5]) was found to be 2 µg/mL (≈ 6.04 µM); with S. pneumoniae 100993 (setting [6]) it was 2 µg/mL; in the experiment with S. pneumoniae 100993 (setting [7]) it was 2 µg/mL (≈ 6.04 µM). Besides, the “Antibacterial activity compared across media” value in the experiment with S. pneumoniae 100993 is reported as “substantially the same”.

`O=C(O)CNCP(=O)(O)O` [Glyphosate]: the figures for the MIC in the experiment on S. pneumoniae 100993 (setting [2]), with S. pneumoniae 100993 (setting [3]) and in the experiment on S. pneumoniae 100993 (setting [4]) were 512 µg/mL (≈ 3030 µM), greater than 512 µg/mL and greater than 512 µg/mL, respectively. Besides, the “Antibacterial activity in TH media (in words)” value in the experiment with S. pneumoniae 100993 (TH media) is given as “no antibacterial activity”. Besides, the “Effect of adding aromatic amino acids and PABA on antibacterial activity in minimal media” value in the experiment on S. pneumoniae 100993 is “reversed”.

On to `N.N.N.O=C(O)C1=CC(=C(c2ccc(O)c(C(=O)O)c2)c2ccc(O)c(C(=O)O)c2)C=CC1=O` [ATA ammonium salt], for which, in experiment [1], the “Inhibition type vs. S3P” value was “competitive inhibitors vs. S3P” and the “Inhibition of EPSPS (in words)” value is listed as “specific inhibitors of EPSPS”.

With `O=C(N[C@H](CO)[C@H](O)c1ccc([N+](=O)[O-])cc1)C(Cl)Cl` [Chloramphenicol], the figures for the MIC in the experiment on S. pneumoniae 100993 (setting [5]), in the experiment on S. pneumoniae 100993 (setting [6]) and with S. pneumoniae 100993 (setting [7]) were 2 µg/mL (≈ 6.19 µM), 2 µg/mL and 2 µg/mL (≈ 6.19 µM), respectively. In the experiment on S. pneumoniae 100993, the “Antibacterial activity compared across media” value is listed as “substantially the same”.

In the case of `O=C(O)C1=CC(=C(c2ccc(O)c(C(=O)O)c2)c2ccc(O)c(C(=O)O)c2)C=CC1=O` [SKB-26488-W3, aurin tricarboxylic acid], the “IC50 against EPSPS” value in experiment [1] (high-throughput screening of EPSPS) is given as “in the μM range”.
